Tests used:
Details in all cases: 72 h
[1] = system: BV-173
Summary of the method: (§1)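 The IC50 was read from log-logistic dose–response fits. Fifteen myeloid leukaemia lines were exposed for 72 h at 37 °C with 5% CO2 to five tenfold doses from 1 to 10,000 nM in duplicate. ATP luminescence, normalised to vehicle and to a 10 µM positive control, was fitted with four parameters.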

[2] = system: HEL
Summary of the method: as §1

[3] = system: HL-60
Summary of the method: as §1

[4] = system: K-562
Summary of the method: as §1

[5] = system: KCL-22
Summary of the method: as §1

[6] = system: KG-1
Summary of the method: as §1

[7] = system: KU-812
Summary of the method: as §1

[8] = system: LAMA-84
Summary of the method: as §1

[9] = system: ML-2
Summary of the method: as §1

[10] = system: MOLM-13
Summary of the method: as §1

[11] = system: MV4-11
Summary of the method: as §1

[12] = system: Mono-Mac-6
Summary of the method: as §1

[13] = system: NOMO-1
Summary of the method: as §1

[14] = system: SHI-1
Summary of the method: as §1

[15] = system: THP-1
Summary of the method: as §1

[16] = system: BV-173; assay: cell viability (% survival relative to DMSO control, bortezomib = 0%); higher = less cytotoxic
Summary of the method: (§2)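 Percent survival figures are means of duplicate wells. They were obtained by CellTiter-Glo luminescence after 10 AML and 5 CML cell lines spent 72 h at 37 °C with 5% CO2 in 384-well plates with compounds at 1, 10, 100, 1000 or 10000 nM. Vehicle was set to 100% and a 10 µM positive control to 0%.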

[17] = system: HEL; assay: as above
Summary of the method: as §2

[18] = system: HL-60; assay: as above
Summary of the method: as §2

[19] = system: K-562; assay: as above
Summary of the method: as §2

[20] = system: KCL-22; assay: as above
Summary of the method: as §2

[21] = system: KG-1; assay: as above
Summary of the method: as §2

[22] = system: KU-812; assay: as above
Summary of the method: as §2

[23] = system: LAMA-84; assay: as above
Summary of the method: as §2

[24] = system: ML-2; assay: as above
Summary of the method: as §2

[25] = system: MOLM-13; assay: as above
Summary of the method: as §2

[26] = system: MV4-11; assay: as above
Summary of the method: as §2

[27] = system: Mono-Mac-6; assay: as above
Summary of the method: as §2

[28] = system: NOMO-1; assay: as above
Summary of the method: as §2

[29] = system: SHI-1; assay: as above
Summary of the method: as §2

[30] = system: THP-1; assay: as above
Summary of the method: as §2

CCCCCOC(=O)Nc1nc(=O)n([C@@H]2O[C@H](C)[C@@H](O)[C@H]2O)cc1F [Capecitabine]
Details	IC50 (cell viability) [µM]
[1]	> 10
[2]	> 10
[3]	> 10
[4]	> 10
[5]	> 10
[6]	> 10
[7]	> 10
[8]	> 10
[9]	> 10
[10]	> 10
[11]	> 10
[12]	> 10
[13]	> 10
[14]	> 10
[15]	> 10

cell viability [%]
Details	1 nM	10 nM	100 nM	1000 nM	10000 nM
[16]	100	93.8	102	97.5	88.3
[17]	86.1	87	106	106	87.6
[18]	104	85.2	109	101	72
[19]	97.4	92.5	82.9	99.9	93.3
[20]	118	85.4	66.3	109	85.2
[21]	98.1	91.1	103	97.5	86.8
[22]	90.7	93.3	104	102	89.9
[23]	91.9	94.5	87.6	99	99.9
[24]	107	95.5	86.1	94.1	98.3
[25]	87.7	104	121	113	70.8
[26]	98.2	90.8	110	103	89.7
[27]	100	90.2	113	95.6	93.1
[28]	99.5	100	94.9	93	99.9
[29]	102	99.1	97.1	107	96.7
[30]	102	100	94.1	105	94.6

Cc1cc2c(C(C)C)c(O)c(O)c(C=O)c2c(O)c1-c1c(C)cc2c(C(C)C)c(O)c(O)c(C=O)c2c1O [Gossypol]
Details	IC50 (cell viability) [µM]
[1]	1.6
[2]	3.55
[3]	3.87
[4]	3.67
[5]	2.86
[6]	3.57
[7]	2.41
[8]	3.34
[9]	2.1
[10]	2.98
[11]	3.43
[12]	2.81
[13]	2.88
[14]	6.25
[15]	2.54

cell viability [%]
Details	1 nM	10 nM	100 nM	1000 nM	10000 nM
[16]	95.8	90	98.8	68.3	0.788
[17]	101	104	101	108	0.902
[18]	107	108	111	117	0.854
[19]	94.6	103	91	110	1.45
[20]	105	101	116	92.7	2.21
[21]	95.8	98.9	105	101	5.89
[22]	95	94.2	105	86.1	0.646
[23]	95.2	106	104	103	0.378
[24]	103	103	105	82.6	0.171
[25]	104	97.6	95.2	97.1	-0.453
[26]	97.7	91.2	93.6	104	-0.358
[27]	94.6	85.5	112	91.8	0.586
[28]	97.2	97.5	104	94.1	0.946
[29]	101	106	105	98.2	28
[30]	95.3	90.3	96.6	84.4	0.727

O=c1cc(-c2ccccc2)oc2c1ccc1ccccc12 [Alpha-Naphtoflavone]
Details	IC50 (cell viability) [µM]
[1]	> 10
[2]	> 10
[3]	> 10
[4]	> 10
[5]	> 10
[6]	> 10
[7]	> 10
[8]	> 10
[9]	> 10
[10]	> 10
[11]	> 10
[12]	> 10
[13]	> 10
[14]	> 10
[15]	> 10

cell viability [%]
Details	1 nM	10 nM	100 nM	1000 nM	10000 nM
[16]	105	92.1	105	111	108
[17]	96.1	95.6	102	96.4	102
[18]	118	83.8	95.6	104	103
[19]	95.8	101	109	90.2	108
[20]	107	98.1	97.7	85.8	84.8
[21]	114	89.4	95.1	90.9	74.7
[22]	98.8	99.3	96.3	96	89.9
[23]	103	95.9	103	93.5	94.4
[24]	101	102	93.4	83.4	82.3
[25]	115	93.5	96.2	80.9	90.1
[26]	106	109	107	89.6	97.1
[27]	92.7	90.3	93.6	111	113
[28]	99.7	94.3	108	95.6	95.2
[29]	113	99.2	97.7	95.8	96.8
[30]	98.3	99.6	102	102	101

Source: the supplement of paper PMC8671470
